Laboratory results as given in US20050101595A1, “N-containing cycloalkyl-substituted amino-thiazole derivatives and pharmaceutical compositions for inhibiting cell proliferation and methods for their use” (PFIZER INC., priority 2003, published 2005).
Structures can show the parent of a compound that is named as a salt. Where two headings read alike, the source gives them in different places. Each block holds one compound with its values, some of them ahead of it.

Assays:
[1] = molecular target: CDK2/Cyclin A (Homo sapiens, UniProt P24941); test: Inhibition of CDK2/Cyclin A Retinoblastoma Kinase Activity; format: biochemical; conditions: for CDK2 % Inhibition At 0.03 μM: Table 2; for Ki: apparent Ki, CDK2/proteolyzed cyclin A, Rb fragment substrate, 25 μM ATP
How it was run: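 CDK2 (10 or 19 nM), insect-cell expressed, gel-filtration purified with truncated cyclin A; Rb fragment substrate; 25 μM ATP; 10 mM HEPES pH 7.4, 10 mM MgCl2; 30° C, 60 or 75 min; EDTA stop; phosphocellulose/nitrocellulose capture, phosphorimager. % inhibition vs DMSO control, no-enzyme background subtracted.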

[2] = molecular target: human CDK4 and genetically truncated (1-264) cyclin D3 (Homo sapiens, UniProt P11802); test: Inhibition of CDK4/Cyclin D Retinoblastoma Kinase Activity; format: biochemical; conditions: for Ki: apparent Ki, CDK4/truncated cyclin D3, Rb fragment substrate, 25 μM ATP
Sequence of human CDK4 and genetically truncated (1-264) cyclin D3 (P11802 whole entry, the tested form may be a part): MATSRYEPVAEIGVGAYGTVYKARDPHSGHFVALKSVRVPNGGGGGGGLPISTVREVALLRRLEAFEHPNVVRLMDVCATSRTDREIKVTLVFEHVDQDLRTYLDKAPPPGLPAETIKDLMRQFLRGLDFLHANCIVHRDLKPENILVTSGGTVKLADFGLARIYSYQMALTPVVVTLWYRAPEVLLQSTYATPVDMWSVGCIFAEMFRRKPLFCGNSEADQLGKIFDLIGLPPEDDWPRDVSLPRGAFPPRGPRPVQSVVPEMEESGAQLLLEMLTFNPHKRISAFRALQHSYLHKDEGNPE
Sequence of human CDK4 and genetically truncated (1-264) cyclin D3 (P30281 1-264 partner): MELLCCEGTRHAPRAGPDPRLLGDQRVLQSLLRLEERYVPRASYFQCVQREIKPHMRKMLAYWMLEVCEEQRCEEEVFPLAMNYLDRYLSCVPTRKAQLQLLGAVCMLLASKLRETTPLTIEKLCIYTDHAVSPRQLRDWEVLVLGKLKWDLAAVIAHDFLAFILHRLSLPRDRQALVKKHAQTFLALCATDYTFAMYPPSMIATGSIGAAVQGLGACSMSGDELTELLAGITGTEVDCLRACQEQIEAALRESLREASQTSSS
How it was run: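 The enzyme complex (5 nM), expressed in co-infected insect cells, was incubated with recombinant Rb fragment, 25 μM radiolabelled ATP and 2% DMSO at 30 °C. Reactions were stopped with EDTA after 20 minutes, or 60 minutes for tight-binding inhibitors. Apparent Ki values came from competitive inhibition fits.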

[3] = tested on: HCT-116 cell line; test: Inhibition of cell growth, tetrazolium salt (MTT) assay; format: cell-based; conditions: for HCT-116 % Inhibition at 0.25 μM: 0.25 μM compound; for IC50: Homo sapiens, HCT-116, 120 h, MTT, three to five days, read-out: HCT-116 IC50
How it was run: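 Growth inhibition by MTT reduction at 540 nm (0.2 mg/mL, 4 h at 37° C, formazan dissolved in DMSO), normalized to cells given only 0.5% v/v DMSO. HCT-116 cultures in McCoy's 5A were dosed 4 h post-plating and kept three to five days at 37° C, 5% CO2.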

[4] = 0.1 μM compound, HCT-116, Table 4
[5] = 0.1 μM compound, HCT-116, Table 3

SMILES: COC(=O)[C@H](Cc1ccccc1)NC(=O)N1CCC(Nc2nc(N)c(C(=O)c3c(F)cccc3F)s2)CC1 [Example O78]
CDK2 % Inhibition At 0.03 μM ([1]; 0.03 μM compound): 25%
CDK4 % Inhibition at 0.03 μM ([2]; 0.03 μM compound, Table 2): 14%
HCT-116 % Inhibition at 0.25 μM ([3]; HCT-116, Table 2): 47%

SMILES: Nc1nc(NC2CCN(S(=O)(=O)CCCN3CCOCC3)CC2)sc1C(=O)c1c(F)cccc1F [Example K12, 1-(4-Amino-2-{1-[3-(morpholin-4-yl)propane-1-sulfonyl]-piperidin-4-ylamino}-thiazol-5-yl)-1-(2,6-difluoro-phenyl)-methanone.]
Ki [1]: 6.7 nM
Ki [2]: 4.7 nM
IC50 ([3]; first HCT-116 column (c4)): 600 nM
IC50 ([3]; second HCT-116 column (c5)): 5000 nM

SMILES: COc1cc(NC(=O)N2CCC(Nc3nc(N)c(C(=O)c4c(F)cccc4F)s3)CC2)cc(OC)c1OC [Example O44]
CDK2 % Inhibition At 0.03 μM ([1]; 0.03 μM compound): 22%
CDK4 % Inhibition at 0.03 μM ([2]; 0.03 μM compound, Table 2): 12%
HCT-116 % Inhibition at 0.25 μM ([3]; HCT-116, Table 2): 29%

SMILES: CS(=O)(=O)c1ccc(S(=O)(=O)N2CCC(Nc3nc(N)c(C(=O)c4c(F)cccc4F)s3)CC2)cc1 [Example F12, 1-{4-Amino-2-[1-(4-methanesulfonyl-benzenesulfonyl)-piperidin-4-ylamino]-thiazol-5-yl}-1-(2,6-difluoro-phenyl)-methanone]
Ki [1]: 0.37 nM
Ki [2]: 1.3 nM
IC50 ([3]; first HCT-116 column (c4)): 190 nM
IC50 ([3]; second HCT-116 column (c5)): 500 nM

SMILES: CCOC(=O)CCCCCNC(=O)N1CCC(Nc2nc(N)c(C(=O)c3c(F)cccc3F)s2)CC1 [Example O70]
CDK2 % Inhibition At 0.03 μM ([1]; 0.03 μM compound): 28%
CDK4 % Inhibition at 0.03 μM ([2]; 0.03 μM compound, Table 2): 7%
HCT-116 % Inhibition at 0.25 μM ([3]; HCT-116, Table 2): 52%

SMILES: CN(C)CCCSc1ccc(S(=O)(=O)N2CCC(Nc3nc(N)c(C(=O)c4c(F)cccc4F)s3)CC2)cn1 [Example L5, 1-(4-Amino-2-{1-[6-(3-dimethylamino-propylsulfanyl)-pyridine-3-sulfonyl]-piperidin-4-ylamino}-thiazol-5-yl)-1-(2,6-difluoro-phenyl)-methanone Dihydrochloride.]
Ki [1]: 1.5 nM
Ki [2]: 0.67 nM
IC50 ([3]; first HCT-116 column (c4)): 70 nM
IC50 ([3]; second HCT-116 column (c5)): > 500 nM

SMILES: Nc1nc(NC2CCN(S(=O)(=O)c3ccc(SCCN4CCOCC4)nc3)CC2)sc1C(=O)c1c(F)cccc1F [Example L7, 1-(4-Amino-2-{1-[6-(2-morpholin-4-yl-ethylsulfanyl)-pyridine-3-sulfonyl]-piperidin-4-ylamino}-thiazol-5-yl)-1-(2,6-difluoro-phenyl)-methanone Dihydrochloride.]
Ki [1]: 1.5 nM
Ki [2]: 2.2 nM
IC50 ([3]; first HCT-116 column (c4)): 95 nM
IC50 ([3]; second HCT-116 column (c5)): 300 nM

SMILES: Cc1cc(C)c(S(=O)(=O)N2CCC(Nc3nc(N)c(C(=O)c4c(F)cccc4F)s3)CC2)c(C)c1 [Example P10]
CDK2 % Inhibition at 0.03 μM ([1]; 0.03 μM compound, Table 3): −14%
CDK4 % Inhibition at 0.03 μM ([2]; 0.03 μM compound, Table 3): 11%
HCT-116 % Inhibition at 0.1 μM [3, 5]: 14%
HCT-116 % Inhibition at 0.25 μM ([3]; HCT-116, Table 3): 35%

SMILES: Nc1nc(NC2CCN(Cc3ccccn3)CC2)sc1C(=O)c1c(F)cccc1F [Example M1, 1-[4-Amino-2-(1-pyridin-2-ylmethyl-piperidin-4-ylamino)-thiazol-5-yl]-1-(2,6-difluoro-phenyl)-methanone]
Ki [1]: > 500 nM
Ki [2]: 240 nM
IC50 ([3]; first HCT-116 column (c4)): 2800 nM
IC50 ([3]; second HCT-116 column (c5)): 5000 nM

More lines, main results first:

CDK2 % Inhibition at 0.03 μM ([1]; at 0.03 μM): 11%
CDK4 % Inhibition at 0.03 μM ([2]; at 0.03 μM): 25%
SMILES: CC(=O)Nc1ccccc1C(=O)N1CCC(Nc2nc(N)c(C(=O)c3c(F)cccc3F)s2)CC1 [Example R111]
HCT-116 % Inhibition at 0.1 μM ([3]; HCT-116 cells, at 0.1 μM): 4%
HCT-116 5 Inhibition at 0.25 μM ([3]; HCT-116 cells, at 0.25 μM): 52

CDK2 % Inhibition at 0.03 μM ([1]; 0.03 μM compound, Table 4): −13%
CDK4 % Inhibition at 0.03 μM ([2]; 0.03 μM compound, Table 4): 17%
SMILES: CCOC(=O)C(=O)N1CCC(Nc2nc(N)c(C(=O)c3c(F)cccc3F)s2)CC1 [Example Q39]
HCT-116 % Inhibition at 0.1 μM [3, 4]: 0%
HCT-116 % Inhibition at 0.25 μM ([3]; HCT-116, Table 4): 25%

CDK2 % Inhibition at 0.03 μM ([1]; 0.03 μM compound, Table 4): 39%
CDK4 % Inhibition at 0.03 μM ([2]; 0.03 μM compound, Table 4): 57%
SMILES: Nc1nc(NC2CCN(C(=O)c3ccc4ccccc4c3)CC2)sc1C(=O)c1c(F)cccc1F [Example Q63]
HCT-116 % Inhibition at 0.1 μM [3, 4]: 5%
HCT-116 % Inhibition at 0.25 μM ([3]; HCT-116, Table 4): 25%

CDK2 % Inhibition at 0.03 μM ([1]; 0.03 μM compound, Table 4): 28%
CDK4 % Inhibition at 0.03 μM ([2]; 0.03 μM compound, Table 4): 61%
SMILES: Nc1nc(NC2CCN(C(=O)c3ccc([N+](=O)[O-])cc3)CC2)sc1C(=O)c1c(F)cccc1F [Example Q71]
HCT-116 % Inhibition at 0.1 μM [3, 4]: 2%
HCT-116 % Inhibition at 0.25 μM ([3]; HCT-116, Table 4): 30%

CDK2 % Inhibition at 0.03 μM ([1]; 0.03 μM compound, Table 3): 19%
CDK4 % Inhibition at 0.03 μM ([2]; 0.03 μM compound, Table 3): 43%
SMILES: N#Cc1cccc(S(=O)(=O)N2CCC(Nc3nc(N)c(C(=O)c4c(F)cccc4F)s3)CC2)c1 [Example P77]
HCT-116 % Inhibition at 0.1 μM [3, 5]: 21%
HCT-116 % Inhibition at 0.25 μM ([3]; HCT-116, Table 3): 20%
